According to PMC4113009, “Dihydroisoxazole inhibitors of Anopheles gambiae seminal transglutaminase AgTG3” (Malaria Journal, 2014):

Tests used:
human caspase-1 = target: T1, human caspase-1 (Homo sapiens, UniProt P29466); experiment: Cysteine protease inhibition assay, caspase-1 (Ac-YVAD-pNA); type: biochemical; conditions: 3 at 100 μM, compared to a DMSO control, chromogenic assay
T1 construct: purchased Abcam
T1 sequence (P29466 120-297 limits assumed): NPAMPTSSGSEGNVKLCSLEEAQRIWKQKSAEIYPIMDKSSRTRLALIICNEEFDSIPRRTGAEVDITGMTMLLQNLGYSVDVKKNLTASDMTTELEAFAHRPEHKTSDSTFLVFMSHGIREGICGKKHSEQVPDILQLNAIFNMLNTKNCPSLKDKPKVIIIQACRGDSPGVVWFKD
T1 sequence (P29466 317-404 limits assumed): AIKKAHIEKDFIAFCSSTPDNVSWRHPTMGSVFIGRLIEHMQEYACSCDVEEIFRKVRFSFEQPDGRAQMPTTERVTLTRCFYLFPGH
Description: The activity of caspase-1 was determined by use of chromogenic substrate Ac-YVAD-pNA (Enzo Life Sciences, NY, USA). The assay was performed by adding 45 μL of 1 Unit caspase-1 (Abcam, MA, USA) and 5 μL of Ac-YVAD-pNA (final concentration, 5 μM) to 50 μL assay buffer (50 mM HEPES pH 7.4, 10 mM DTT, 1 mM EDTA, 0.1% CHAPS, 20% glycerol). Substrate cleavage after 1 h incubation at 37°C was measured by […] absorbance at 400 nm in a benchtop UV/Vis spectrophotometer (UV1800, Shimadzu, Kyoto, Japan).
Transglutaminases and cysteine proteases have a similar catalytic mechanism involving an active site cysteine and formation of a thioacyl intermediate. […] To test this hypothesis, the inhibition of two cysteine proteases, human caspase-1 and recombinant tobacco etch virus (TEV) protease by 3 at 100 μM were tested using a chromogenic and SDS-PAGE assay, respectively (Figure 9). […] Neither human caspase-1 nor TEV are endogenous proteins in A. gambiae, which may well contain other endogenous targets of 1–3, not least the two other transglutaminases in the A. gambiae genome.

AgTG3 = AgTG3 (Anopheles gambiae, UniProt D2K8K8); experiment: biochemical; conditions: dose–response curves in the range of 0.5–100 μM, FITC-CAD plate assay; read-out: IC50 for inhibition of AgTG3
Description: Plugin-C (25 μg/well) was incubated in black 96-well Ni-coated plates (Pierce 15342) for 2 h at room temperature or overnight at 4°C. Plates were washed three times with 200 μL of TBS and loaded with 0.5 μg of AgTG3 in 50 μL TBS buffer. DHI inhibitors were added for 1 h to block the enzyme, followed by 50 μL of 2× assay buffer (2× TBS, 20 mM CaCl2, 100 μM FITC-CAD, 2 mM DTT). Wells were incubated for 60 min at room temperature, washed three times with 200 μL of TBS, and filled to a final volume of 100 μL for fluorescence measurements in a microplate reader (Biotek Synergy 2). The z-score was calculated based on the mean and standard deviation of three replicates of inhibitor compared to a DMSO control, zi=x¯DMSO-x¯i/σDMSO+σi .
The targeted chemical library was screened for inhibition of AgTG3 at 100 μM in a FITC-CAD plate assay (Figure 3A), performed in triplicate as previously described. Hit-calling was based on >67% decrease in fluorescence compared to DMSO and z > 5. Seven compounds fulfilled these criteria in the primary assay.
To verify the results of this preliminary assay, dose–response curves in the range of 0.5–100 μM were determined for 27 structurally related compounds within the targeted library (Additional file 3: Table S2 and Additional file 4: Table S3). […] Selected stereoisomers present in the targeted library were compared in equivalent dose–response assays. Inhibition of AgTG3 was specific for the (S)-DHI isomer of 1 (Figure 4A), the (R) isomer (4) displaying no activity (IC50 > 100 μM).

[1] = system: Anopheles gambiae G3 strain mosquitoes; experiment: Anopheles gambiae laboratory mating assay (mating plug transfer); type: in vivo
Description: Anopheles gambiae G3 strain mosquitoes from a laboratory colony were reared using standard conditions (26–28°C, 65–80% relative humidity, 12 h/12 h Light/Darkness (L:D) photoperiod). Mosquitoes were sexed as pupae and adult males and females were allowed to emerge in separate cages to ensure their status as virgins. Three-day-old virgin males were injected with 138 nl of 100 μM of inhibitor diluted in 5% DMSO, or with 138 nl of a 5% DMSO solution as a control. Mating experiments were performed four days after eclosion as described previously and couples were captured in copula. RNAi experiments were performed as previously described. Mated females were dissected within two hours of mating to determine the presence of the mating plug in their atrium.
Finally, A. gambiae laboratory mating assays were performed to test if the DHI inhibitors identified in the pilot screen could inhibit male transfer of the mating plug. Compound 3, 100 μM in DMSO, was administered to male mosquitoes by intrathoracic injection. Injected males were mated with virgin females, and their ability to transfer a mating plug to females was assessed (Table 1). […] Thus, injection of males with AgTG3 inhibitor 3 is at least as effective as injection of dsRNA to inhibit mating plug formation in A. gambiae males.

Sequence of AgTG3 (D2K8K8 entry or part of it): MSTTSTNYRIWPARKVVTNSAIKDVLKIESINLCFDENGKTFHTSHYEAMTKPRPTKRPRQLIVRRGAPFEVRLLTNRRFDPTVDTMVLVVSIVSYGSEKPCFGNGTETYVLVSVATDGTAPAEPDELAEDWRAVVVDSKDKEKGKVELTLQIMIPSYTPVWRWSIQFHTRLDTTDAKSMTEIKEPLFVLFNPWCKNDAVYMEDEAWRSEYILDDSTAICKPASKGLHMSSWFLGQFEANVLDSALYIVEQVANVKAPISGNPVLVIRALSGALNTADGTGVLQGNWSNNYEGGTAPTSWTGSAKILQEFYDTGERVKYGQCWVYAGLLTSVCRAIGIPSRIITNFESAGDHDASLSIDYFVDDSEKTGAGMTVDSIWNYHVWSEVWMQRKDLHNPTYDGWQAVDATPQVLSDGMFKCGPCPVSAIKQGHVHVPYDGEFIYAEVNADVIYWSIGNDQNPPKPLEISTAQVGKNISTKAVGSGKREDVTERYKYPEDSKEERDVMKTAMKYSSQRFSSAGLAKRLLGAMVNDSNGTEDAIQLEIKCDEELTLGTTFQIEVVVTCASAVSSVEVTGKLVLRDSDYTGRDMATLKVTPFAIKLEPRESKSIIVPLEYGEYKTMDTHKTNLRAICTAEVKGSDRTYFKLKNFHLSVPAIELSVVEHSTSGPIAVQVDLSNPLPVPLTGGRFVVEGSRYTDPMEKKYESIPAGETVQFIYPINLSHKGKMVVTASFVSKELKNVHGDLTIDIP

In the case of `O=C(N[C@@H](Cc1c[nH]c2ccccc12)C(=O)NC[C@@H]1CC(Br)=NO1)OCc1cnc2ccccc2c1`, the “Inhibition of caspase-1” value (human caspase-1) is reported as “no inhibition of the protease”, the IC50 (AgTG3) is reported as 6.1 µM and the “Reduction in transfer of the mating plug” value ([1]; intrathoracic injection of males) is reported as 15%. The “Mating plug transferred (number of females)” value ([1]; males injected intrathoracically (3: 138 nl of 100 μM; dsRNA as ref 39), N 75 (3), 77 (dsAgTG3)) was 64, the “No plug transferred (number of females)” value ([1]; males injected intrathoracically (3: 138 nl of 100 μM; dsRNA as ref 39), N 75 (3), 77 (dsAgTG3), three independent experiments) was 11 and the “Females that failed to receive a mating plug” value ([1]; males injected intrathoracically, DMSO control 3%, dsLacZ control 2%) was 15%. For the same compound, the “Ill effect of injection on males” value ([1]; males injected with 3) was “no obvious ill effect from wounding”.
